Values of other authors in US10813877B2, “Oral care products and methods” (MGE HOLDINGS LLC, priority 2016, dated 2020).

Tested on: cells
Details: ex vivo

[H]/N=C(\N/C(=N/[H])NCCCCCCNC(=N)NC(=N)Nc1ccc(Cl)cc1)Nc1ccc(Cl)cc1 [chlorhexidine]
cytotoxic effect on cells: cytotoxic effect
